From patent publication US20020137929A1, “1 - (3-heterocyclylphenyl) isothiourea, -isourea, -guanidine and -amidine herbicidal agents” (Intellectual Property Department, BASF Aktiengesellschaft, priority 1998, published 2002)

Tests used:
[1] = tested on: AMBEL (Ragweed, Common); experiment: Preemergence herbicidal evaluation; type: in vivo, Ambrosia artemisifolia; details: rated 4-5 weeks after treatment
How it was run: (§1)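 Scores use a 0–9 visual scale covering stand, vigor, malformation, size and chlorosis relative to controls, rated four to five weeks after treatment. Before emergence, soil-planted seeds were sprayed with compound in aqueous acetone at roughly 0.0156–0.500 kg/ha and held in the greenhouse.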

[2] = tested on: SAGPY (Arrowhead (Pygmaea)); experiment: Postemergence weed control under flooded paddy conditions; type: in vivo, Sagittaria pygmaea; details: postemergence weeds, 3-4 weeks after treatment
How it was run: (§2)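 Injury ratings (0–9 scale covering stand, vigor, malformation, size, chlorosis and overall appearance versus control) were made three to four weeks after treatment. Test material, about 0.0313 to 0.500 kg/ha a.i. in 50/50 v/v aqueous/acetone, was added to flood water 1.5 to 3 cm deep over 3 to 5 cm weeds and 1.5 to 2.5 leaf rice.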

[3] = tested on: ORYSAT (Rice, Tebonnet); experiment: Preemergence herbicidal evaluation; type: in vivo, Oryza sativa, (L.) Tebonnet; details: rated 4-5 weeks after treatment
How it was run: as §1

[4] = tested on: CYPSE (Flatsedge); experiment: Preemergence weed control under flooded paddy conditions; type: in vivo, Cyperus serotinus; details: rated 3-4 weeks after treatment
How it was run: (§3)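 Silt loam, seeds in top 0.5 cm; flood held 1.5-3 cm; test cpd as acetone/water 50/50 into flood water, ~0.0313-0.500 kg/ha a.i.; greenhouse 3-4 wk; visual 0-9 score vs control.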

[5] = tested on: GALAP (Galium); experiment: Postemergence herbicidal evaluation; type: in vivo, Galium aparine; details: for GALAP herbicidal rating: postemergence
How it was run: (§4)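 Scores (0–9) reflect plant stand, vigor, malformation, size, chlorosis and general appearance relative to control, read 4 to 5 weeks after treatment and averaged where tests were repeated. Application: about 0.0156–0.500 kg/ha sprayed at 40 psi onto two-week seedlings.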

[6] = tested on: ORYSAT (Rice, Tebonnet); experiment: Postemergence herbicidal evaluation; type: in vivo, Oryza sativa, (L.) Tebonnet; details: for ORYSAT herbicidal rating: postemergence
How it was run: as §4

[7] = tested on: GLXMAW (Soybean, Williams); experiment: Preemergence herbicidal evaluation; type: in vivo, Glycine max, (L.) Merr. cv Williams; details: rated 4-5 weeks after treatment
How it was run: as §1

[8] = tested on: CYPIR (Rice Flatsedge); experiment: Postemergence weed control under flooded paddy conditions; type: in vivo, Cyperus iria; details: postemergence weeds, 3-4 weeks after treatment
How it was run: as §2

[9] = tested on: CASOB (Sicklepod); experiment: Postemergence herbicidal evaluation; type: in vivo, Cassia obtusifolia; details: for CASOB herbicidal rating: postemergence
How it was run: as §4

[10] = tested on: MOOVA (Monochoria); experiment: Preemergence weed control under flooded paddy conditions; type: in vivo, Monochoria vaginalis; details: rated 3-4 weeks after treatment
How it was run: as §3

[11] = tested on: CHEAL (Lambsquarters, Common); experiment: Postemergence herbicidal evaluation; type: in vivo, Chenopodium album; details: for CHEAL herbicidal rating: postemergence
How it was run: as §4

[12] = tested on: CYPSE (Flatsedge); experiment: Postemergence weed control under flooded paddy conditions; type: in vivo, Cyperus serotinus; details: postemergence weeds, 3-4 weeks after treatment
How it was run: as §2

[13] = tested on: SETVI (Foxtail, Green); experiment: Preemergence herbicidal evaluation; type: in vivo, Setaria viridis; details: rated 4-5 weeks after treatment
How it was run: as §1

[14] = tested on: ZEAMX (Corn, Field); experiment: Postemergence herbicidal evaluation; type: in vivo, Zea mays; details: for ZEAMX herbicidal rating: postemergence
How it was run: as §4

## C=CCN1C(=O)CSC1=Nc1cc(-n2c(=O)cc(C(F)(F)F)n(C)c2=O)c(F)cc1Cl [Compound 27]
[1]; rate 0.0156 kg/ha
  Preemergence herbicidal rating AMBEL: 0.0
[1]; rate 0.0313 kg/ha
  Preemergence herbicidal rating AMBEL: 2.0
[1]; rate 0.0625 kg/ha
  Preemergence herbicidal rating AMBEL: 2.0
[1]; rate 0.1250 kg/ha
  Preemergence herbicidal rating AMBEL: 9.0
[1]; rate 0.2500 kg/ha
  Preemergence herbicidal rating AMBEL: 7.0
[2]; rate 0.0313 kg/ha
  Herbicidal rating SAGPY: 0.0
[2]; rate 0.0625 kg/ha
  Herbicidal rating SAGPY: 0.0
[2]; rate 0.1250 kg/ha
  Herbicidal rating SAGPY: 4.0
[2]; rate 0.2500 kg/ha
  Herbicidal rating SAGPY: 4.0
[3]; rate 0.0156 kg/ha
  Preemergence herbicidal rating ORYSAT: 0.0
[3]; rate 0.0313 kg/ha
  Preemergence herbicidal rating ORYSAT: 0.0
[3]; rate 0.0625 kg/ha
  Preemergence herbicidal rating ORYSAT: 3.0
[3]; rate 0.1250 kg/ha
  Preemergence herbicidal rating ORYSAT: 3.0
[3]; rate 0.2500 kg/ha
  Preemergence herbicidal rating ORYSAT: 8.0
[4]; 0.0313 kg/ha
  Herbicidal rating CYPSE: 0.0
[4]; 0.0625 kg/ha
  Herbicidal rating CYPSE: 0.0
[4]; 0.1250 kg/ha
  Herbicidal rating CYPSE: 0.0
[4]; 0.2500 kg/ha
  Herbicidal rating CYPSE: 9.0
[5]; rate 0.0158 kg/ha
  GALAP herbicidal rating: 1.0
[5]; rate 0.0315 kg/ha
  GALAP herbicidal rating: 4.0
[5]; rate 0.0630 kg/ha
  GALAP herbicidal rating: 4.0
[6]; rate 0.0158 kg/ha
  ORYSAT herbicidal rating: 2.0
[6]; rate 0.0315 kg/ha
  ORYSAT herbicidal rating: 2.5
[6]; rate 0.0630 kg/ha
  ORYSAT herbicidal rating: 4.5
[7]; rate 0.0156 kg/ha
  Preemergence herbicidal rating GLXMAW: 0.0
[7]; rate 0.0313 kg/ha
  Preemergence herbicidal rating GLXMAW: 0.0
[7]; rate 0.0625 kg/ha
  Preemergence herbicidal rating GLXMAW: 9.0
[7]; rate 0.1250 kg/ha
  Preemergence herbicidal rating GLXMAW: 9.0
[7]; rate 0.2500 kg/ha
  Preemergence herbicidal rating GLXMAW: 7.0
[8]; rate 0.0313 kg/ha
  Herbicidal rating CYPIR: 3.0
[8]; rate 0.0625 kg/ha
  Herbicidal rating CYPIR: 4.0
[8]; rate 0.1250 kg/ha
  Herbicidal rating CYPIR: 6.0
[8]; rate 0.2500 kg/ha
  Herbicidal rating CYPIR: 9.0
[9]; rate 0.0158 kg/ha
  CASOB herbicidal rating: 1.0
[9]; rate 0.0315 kg/ha
  CASOB herbicidal rating: 1.0
[9]; rate 0.0630 kg/ha
  CASOB herbicidal rating: 1.0
[10]; 0.0313 kg/ha
  Herbicidal rating MOOVA: 9.0
[10]; 0.0625 kg/ha
  Herbicidal rating MOOVA: 9.0
[10]; 0.1250 kg/ha
  Herbicidal rating MOOVA: 9.0
[10]; 0.2500 kg/ha
  Herbicidal rating MOOVA: 9.0
[11]; rate 0.0158 kg/ha
  CHEAL herbicidal rating: 6.0
[11]; rate 0.0315 kg/ha
  CHEAL herbicidal rating: 6.0
[11]; rate 0.0630 kg/ha
  CHEAL herbicidal rating: 9.0
[12]; rate 0.0313 kg/ha
  Herbicidal rating CYPSE: 0.0
[12]; rate 0.0625 kg/ha
  Herbicidal rating CYPSE: 0.0
[12]; rate 0.1250 kg/ha
  Herbicidal rating CYPSE: 0.0
[12]; rate 0.2500 kg/ha
  Herbicidal rating CYPSE: 9.0
[13]; rate 0.0156 kg/ha
  Preemergence herbicidal rating SETVI: 0.0
[13]; rate 0.0313 kg/ha
  Preemergence herbicidal rating SETVI: 9.0
[13]; rate 0.0625 kg/ha
  Preemergence herbicidal rating SETVI: 9.0
[13]; rate 0.1250 kg/ha
  Preemergence herbicidal rating SETVI: 9.0
[13]; rate 0.2500 kg/ha
  Preemergence herbicidal rating SETVI: 9.0
[14]; rate 0.0158 kg/ha
  ZEAMX herbicidal rating: 5.0
[14]; rate 0.0315 kg/ha
  ZEAMX herbicidal rating: 5.5
[14]; rate 0.0630 kg/ha
  ZEAMX herbicidal rating: 6.5

## COC(=O)CCN1C(=O)CSC1=Nc1cc(-n2c(=O)cc(C(F)(F)F)n(C)c2=O)c(F)cc1Cl [Compound 28, Methyl 2-{{2-chloro-5-[3,6-dihydro-3-methyl-2,6-dioxo-4-(trifluoromethyl)-1(2H)-pyrimidinyl]-4-fluorophenyl}imino}-4-oxo-3-thiazolidinepropionate]
[1]; rate 0.0625 kg/ha
  Preemergence herbicidal rating AMBEL: 0.0
[1]; rate 0.1250 kg/ha
  Preemergence herbicidal rating AMBEL: 0.0
[1]; rate 0.2500 kg/ha
  Preemergence herbicidal rating AMBEL: 7.0
[2]; rate 0.0313 kg/ha
  Herbicidal rating SAGPY: 0.0
[2]; rate 0.0625 kg/ha
  Herbicidal rating SAGPY: 0.0
[2]; rate 0.1250 kg/ha
  Herbicidal rating SAGPY: 0.0
[2]; rate 0.2500 kg/ha
  Herbicidal rating SAGPY: 0.0
[3]; rate 0.0625 kg/ha
  Preemergence herbicidal rating ORYSAT: 0.0
[3]; rate 0.1250 kg/ha
  Preemergence herbicidal rating ORYSAT: 2.0
[3]; rate 0.2500 kg/ha
  Preemergence herbicidal rating ORYSAT: 8.0
[4]; 0.0313 kg/ha
  Herbicidal rating CYPSE: 0.0
[4]; 0.0625 kg/ha
  Herbicidal rating CYPSE: 0.0
[4]; 0.1250 kg/ha
  Herbicidal rating CYPSE: 0.0
[4]; 0.2500 kg/ha
  Herbicidal rating CYPSE: 0.0
[5]; Rate 0.0158 kg/ha
  Postemergence herbicidal rating GALAP: 3.0
[5]; Rate 0.0315 kg/ha
  Postemergence herbicidal rating GALAP: 7.0
[5]; Rate 0.0630 kg/ha
  Postemergence herbicidal rating GALAP: 8.0
[6]; Rate 0.0158 kg/ha
  Postemergence herbicidal rating ORYSAT: 2.5
[6]; Rate 0.0315 kg/ha
  Postemergence herbicidal rating ORYSAT: 3.5
[6]; Rate 0.0630 kg/ha
  Postemergence herbicidal rating ORYSAT: 6.0
[7]; rate 0.0625 kg/ha
  Preemergence herbicidal rating GLXMAW: 3.0
[7]; rate 0.1250 kg/ha
  Preemergence herbicidal rating GLXMAW: 5.0
[7]; rate 0.2500 kg/ha
  Preemergence herbicidal rating GLXMAW: 9.0
[8]; rate 0.0313 kg/ha
  Herbicidal rating CYPIR: 9.0
[8]; rate 0.0625 kg/ha
  Herbicidal rating CYPIR: 9.0
[8]; rate 0.1250 kg/ha
  Herbicidal rating CYPIR: 9.0
[8]; rate 0.2500 kg/ha
  Herbicidal rating CYPIR: 9.0
[9]; Rate 0.0158 kg/ha
  Postemergence herbicidal rating CASOB: 1.0
[9]; Rate 0.0315 kg/ha
  Postemergence herbicidal rating CASOB: 1.0
[9]; Rate 0.0630 kg/ha
  Postemergence herbicidal rating CASOB: 4.0
[10]; 0.0313 kg/ha
  Herbicidal rating MOOVA: 9.0
[10]; 0.0625 kg/ha
  Herbicidal rating MOOVA: 9.0
[10]; 0.1250 kg/ha
  Herbicidal rating MOOVA: 9.0
[10]; 0.2500 kg/ha
  Herbicidal rating MOOVA: 9.0
[11]; Rate 0.0158 kg/ha
  Postemergence herbicidal rating CHEAL: 2.0
[11]; Rate 0.0315 kg/ha
  Postemergence herbicidal rating CHEAL: 4.0
[11]; Rate 0.0630 kg/ha
  Postemergence herbicidal rating CHEAL: 4.0
[12]; rate 0.0313 kg/ha
  Herbicidal rating CYPSE: 0.0
[12]; rate 0.0625 kg/ha
  Herbicidal rating CYPSE: 0.0
[12]; rate 0.1250 kg/ha
  Herbicidal rating CYPSE: 0.0
[12]; rate 0.2500 kg/ha
  Herbicidal rating CYPSE: 0.0
[13]; rate 0.0625 kg/ha
  Preemergence herbicidal rating SETVI: 7.0
[13]; rate 0.1250 kg/ha
  Preemergence herbicidal rating SETVI: 9.0
[13]; rate 0.2500 kg/ha
  Preemergence herbicidal rating SETVI: 9.0
[14]; Rate 0.0158 kg/ha
  Postemergence herbicidal rating ZEAMX: 7.5
[14]; Rate 0.0315 kg/ha
  Postemergence herbicidal rating ZEAMX: 7.5
[14]; Rate 0.0630 kg/ha
  Postemergence herbicidal rating ZEAMX: 9.0
